# Test results from PMC4467156, “A new chemical inhibitor of angiogenesis and tumorigenesis that targets the VEGF signaling pathway upstream of Ras” (Oncotarget, 2015).
# What was measured:
# HMEC-GFP cells = test: Scratch wound closure assay, HMEC-GFP; assay type: cell-based, human; details: Homo sapiens
# Text: In order to adapt the endothelial scratch wounding assay to the constraints of high throughput screening, we decided to use an endothelial cell line rather than primary cultures for the sake of reproducibility. Since angiogenesis is triggered by capillary endothelial cells, we selected the HMEC-1 cell line which consists of human dermal microvascular endothelial cells stably expressing SV40 […] antigen. We infected this cell line with GFP-encoding retroviral particles and selected one clone (thereafter named HMEC-GFP) that presented a high level of fluorescence and a strong proliferation rate (doubling time in the presence of serum: 22 h). We controlled that GFP expression was stable over at least 50 passages and that these cells still expressed endothelial markers such as VE-cadherin and CD31. In a standard assay, HMEC-GFP cells were grown until confluence in 96-well plates in the presence of serum, scratched with the multi-tip dispenser of the HTS automat, gently rinsed twice to eliminate detached cells and cell debris that could liberate inflammatory and potentially angiogenic cytokines, and incubated for 24 h in the presence of serum and the compounds to be tested. Each well was photographed at time 0 h (after wounding) and 24 h under a motorized epifluorescence microscope and the digitized images were analyzed using Image J to determine the percentage of wound closure (Figure 1A, 1B). Under our standard conditions, the closure rate was 72 ± 4% in the positive controls and 27 ± 4.% in the negative controls.
# Confluent cell monolayers were wounded with a plastic pipet tip, washed gently with phosphate buffer saline (PBS) and treated with complete media containing molecules, as indicated. Cells were placed at 37°C into the incubator and photographed at indicated times. Quantitation of closure of the monolayer was performed using the NIH Image J program (http://rsbweb.nih.gov/ij/). Results are expressed as percentage of wound closure at t = 24 h as compared to the initial wound at t = 0 h.
# FGFR2 = FGFR2 (Homo sapiens, UniProt P21802); test: In vitro kinase assay FGFR2; assay type: biochemical; details: concentrations up to 50 μM
# Description: (§1) We first wondered whether COB223 required to be internalized to exert its biological effect. For this, we synthesized a covalent complex between BSA and COB223 and purified it. […] In vitro kinase assays were performed with a panel of purified protein-kinases involved in mitogenic signaling, including VEGFR2, FGFR1, FGFR2, PDGFRß, Met, Raf, MEK1, ERK1, ERK2, PKCα, PKCβI, PKCβII, PKCζ as indicated in Table 2. […] We then analyzed the effect of COB223 on VEGF-induced phosphorylations of VEGFR2, MEK and ERK1/2 (Figure 9). […] (Figure 9A, 9B). […] It was also specific of the p42/p44 MAP kinase pathway as activation of p38 MAP kinase phosphorylation in HUVEC cells by VEGF or serum was unaffected by COB223 (data not shown). The activation of src phosphorylation by VEGF in HUVECs was also unaffected by COB223 (data not shown).
# PDGFRß = PDGFRß (Homo sapiens, UniProt P09619); test: In vitro kinase assay PDGFRß; assay type: biochemical; details: concentrations up to 50 μM
# Description: as §1
# Met = Met (Homo sapiens, UniProt P08581); test: In vitro kinase assay Met; assay type: biochemical; details: concentrations up to 50 μM
# Description: as §1
# Raf = test: In vitro kinase assay Raf; assay type: biochemical; details: concentrations up to 50 μM
# Description: as §1
# ERK1/2 phosphorylation = ERK1/2 phosphorylation in 3T3 fibroblasts; assay type: cell-based; details: data not shown
# [1] = test system: p38 MAP kinase phosphorylation; test: p38 MAP kinase phosphorylation in HUVEC; assay type: cell-based, human; details: data not shown
# PLCγ phosphorylation = test: Western blot, PLCγ phosphorylation in HUVEC; assay type: cell-based, human; details: 10 ng/mL VEGF-A 15 min, 25 μM COB223
# Description: (§2) Figure 11 Effect of COB223 on mitogenic or oncogenic activation of the Ras /MEK/ERK signaling pathway (A) Serum-starved HUVEC cells were incubated for 15 min in the presence of 10 ng/mL VEGF-A and in the absence or the presence of 25 μM COB223. The phosphorylations of PLCγ on tyrosine 783, of Raf on serine 338 or on serine 259 and of ERK1/2 were then analyzed by Western blot analysis of the cell lysates as described in Material and Methods. Western blots for total PLCγ, Raf and ERK1/2 were used as loading controls. (B) MCF10A cells overexpressing an oncogenic version of Ras (MCF10A-RasG12V) were treated for the indicated periods of time by 25 μM COB223. Total ERK1/2 and phospho-ERK1/2 were then visualized by Western blotting of the cell extracts. Non-treated regular MCF10A cells were analyzed as a control (first lane). (C) CCL-39 fibroblasts expressing a constitutively active Raf in an estrogen-responsive manner were stimulated for 3 h with estradiol and treated for 15 or 30 min with 25 μM COB223. Total ERK1/2 and phospho-ERK1/2 were then visualized by Western blotting of the cell extracts. Non-treated cells were analyzed as a control (left lanes).
# (§3) Serum-starved HUVEC cells were incubated for 15 min in the presence of either 10 ng/mL VEGF-A or 20 ng/mL FGF-2 and in the absence or the presence of indicated concentration of COB223. COB223 was incubated 15 min prior to stimulation. […]
# Raf phosphorylation = test: Western blot, Raf phosphorylation in HUVEC; assay type: cell-based, human; details: 10 ng/mL VEGF-A 15 min, 25 μM COB223
# Description: as §2, §3
# Chain of FGFR2 (P21802 22-821, species assumed): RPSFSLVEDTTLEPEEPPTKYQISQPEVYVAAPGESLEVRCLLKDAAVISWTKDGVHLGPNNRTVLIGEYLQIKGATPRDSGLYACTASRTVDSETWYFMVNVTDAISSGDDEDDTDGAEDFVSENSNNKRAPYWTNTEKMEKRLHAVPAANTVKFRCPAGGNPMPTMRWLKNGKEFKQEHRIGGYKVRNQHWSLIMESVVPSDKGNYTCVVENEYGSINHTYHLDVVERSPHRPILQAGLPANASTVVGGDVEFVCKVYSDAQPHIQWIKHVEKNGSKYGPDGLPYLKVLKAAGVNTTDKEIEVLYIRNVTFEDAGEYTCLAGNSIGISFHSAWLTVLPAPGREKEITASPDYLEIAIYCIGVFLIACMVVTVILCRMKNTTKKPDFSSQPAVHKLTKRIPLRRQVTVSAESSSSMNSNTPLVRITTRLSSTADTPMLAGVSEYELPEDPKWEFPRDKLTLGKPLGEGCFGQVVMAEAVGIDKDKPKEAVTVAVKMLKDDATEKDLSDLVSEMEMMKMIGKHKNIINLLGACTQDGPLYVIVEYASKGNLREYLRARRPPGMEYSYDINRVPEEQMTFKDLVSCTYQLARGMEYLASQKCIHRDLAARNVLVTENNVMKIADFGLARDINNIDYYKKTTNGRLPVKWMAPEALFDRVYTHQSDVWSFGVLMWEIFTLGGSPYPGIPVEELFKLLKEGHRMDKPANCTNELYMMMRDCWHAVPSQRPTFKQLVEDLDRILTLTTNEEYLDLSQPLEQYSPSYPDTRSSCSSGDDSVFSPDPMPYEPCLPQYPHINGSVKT
# Chain of Met (P08581 25-1390): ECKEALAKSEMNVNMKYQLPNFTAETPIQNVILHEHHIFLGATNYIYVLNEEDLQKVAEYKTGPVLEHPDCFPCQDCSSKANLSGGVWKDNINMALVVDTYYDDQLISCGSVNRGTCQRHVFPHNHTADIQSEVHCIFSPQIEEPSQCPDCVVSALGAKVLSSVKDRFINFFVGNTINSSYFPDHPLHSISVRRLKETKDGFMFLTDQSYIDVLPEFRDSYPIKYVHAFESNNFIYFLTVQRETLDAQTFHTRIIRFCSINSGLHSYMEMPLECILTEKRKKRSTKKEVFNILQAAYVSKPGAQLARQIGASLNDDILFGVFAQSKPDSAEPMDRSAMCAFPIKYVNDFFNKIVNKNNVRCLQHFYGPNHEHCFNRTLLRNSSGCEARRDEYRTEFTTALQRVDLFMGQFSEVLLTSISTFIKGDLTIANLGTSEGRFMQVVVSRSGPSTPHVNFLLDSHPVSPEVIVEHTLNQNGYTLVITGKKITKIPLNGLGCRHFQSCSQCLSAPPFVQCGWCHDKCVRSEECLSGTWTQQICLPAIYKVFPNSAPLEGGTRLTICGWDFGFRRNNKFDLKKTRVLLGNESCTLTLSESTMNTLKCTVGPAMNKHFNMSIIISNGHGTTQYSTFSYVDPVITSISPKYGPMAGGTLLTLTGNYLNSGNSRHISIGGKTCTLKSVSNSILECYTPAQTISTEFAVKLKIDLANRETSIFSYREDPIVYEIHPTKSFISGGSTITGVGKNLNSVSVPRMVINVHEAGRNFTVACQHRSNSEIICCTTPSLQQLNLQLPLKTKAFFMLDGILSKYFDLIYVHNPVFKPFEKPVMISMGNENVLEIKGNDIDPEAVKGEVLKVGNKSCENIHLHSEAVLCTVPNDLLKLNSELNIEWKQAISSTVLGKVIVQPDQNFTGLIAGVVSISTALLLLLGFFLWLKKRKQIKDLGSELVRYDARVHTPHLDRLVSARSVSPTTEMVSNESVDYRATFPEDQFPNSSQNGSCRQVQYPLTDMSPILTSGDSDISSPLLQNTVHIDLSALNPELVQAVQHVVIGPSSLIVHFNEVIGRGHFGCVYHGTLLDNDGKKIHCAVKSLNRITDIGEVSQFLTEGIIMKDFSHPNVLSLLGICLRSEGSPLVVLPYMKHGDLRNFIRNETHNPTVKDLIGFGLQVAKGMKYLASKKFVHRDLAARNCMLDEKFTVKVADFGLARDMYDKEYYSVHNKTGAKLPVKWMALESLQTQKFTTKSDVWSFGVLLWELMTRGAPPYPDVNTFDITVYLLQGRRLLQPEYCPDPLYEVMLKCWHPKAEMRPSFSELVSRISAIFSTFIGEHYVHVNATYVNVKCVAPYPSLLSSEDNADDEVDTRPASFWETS
# Chain of PDGFRß (P09619 33-1106, species assumed): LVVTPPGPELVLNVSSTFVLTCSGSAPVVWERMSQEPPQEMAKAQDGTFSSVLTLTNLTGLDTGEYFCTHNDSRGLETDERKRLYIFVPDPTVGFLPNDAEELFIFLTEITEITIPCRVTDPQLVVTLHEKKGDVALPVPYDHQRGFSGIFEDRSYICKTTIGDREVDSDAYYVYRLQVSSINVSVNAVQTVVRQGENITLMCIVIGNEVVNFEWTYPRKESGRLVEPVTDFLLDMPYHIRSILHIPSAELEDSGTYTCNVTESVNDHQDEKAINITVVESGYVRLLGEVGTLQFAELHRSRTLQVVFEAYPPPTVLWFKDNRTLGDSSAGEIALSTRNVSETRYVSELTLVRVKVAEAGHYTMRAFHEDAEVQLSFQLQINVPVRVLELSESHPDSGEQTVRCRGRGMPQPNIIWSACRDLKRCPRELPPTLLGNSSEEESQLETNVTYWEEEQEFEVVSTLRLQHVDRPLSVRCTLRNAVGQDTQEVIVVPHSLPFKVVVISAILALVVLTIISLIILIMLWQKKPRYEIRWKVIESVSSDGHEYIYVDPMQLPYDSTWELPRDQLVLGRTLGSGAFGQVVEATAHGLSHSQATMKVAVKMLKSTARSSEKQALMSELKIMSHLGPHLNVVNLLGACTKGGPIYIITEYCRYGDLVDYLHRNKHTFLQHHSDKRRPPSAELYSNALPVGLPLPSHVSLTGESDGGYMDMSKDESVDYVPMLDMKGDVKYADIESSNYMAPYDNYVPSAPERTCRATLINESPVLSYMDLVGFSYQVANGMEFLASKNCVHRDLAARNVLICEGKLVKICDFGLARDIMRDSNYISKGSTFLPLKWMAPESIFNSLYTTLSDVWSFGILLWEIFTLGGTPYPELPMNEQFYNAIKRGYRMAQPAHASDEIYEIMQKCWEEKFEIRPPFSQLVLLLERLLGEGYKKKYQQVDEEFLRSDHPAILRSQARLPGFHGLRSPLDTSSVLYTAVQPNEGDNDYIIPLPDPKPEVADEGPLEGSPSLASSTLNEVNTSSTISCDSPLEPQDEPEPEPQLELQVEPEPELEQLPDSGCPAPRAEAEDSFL
smiles,measurement,setting,value
"CN(C)c1cccc2c(S(=O)(=O)NCCCN3CCN(CCCNC(=O)OC(C)(C)C)CC3)cccc12 [COB223, tert-Butyl 3-(4-(3-(5-(dimethylamino)naphthalene-1-sulfonamido)propyl)piperazin-1-yl) propylcarbamate]",EC50,HMEC-GFP cells; as quoted,5 µM
same,IC50,"HMEC-GFP cells; wound closure after 24 h, 10% FCS, tested 3.125 μM to 100 μM",5 µM
same,kinase inhibition,FGFR2,None of them was inhibited
same,kinase inhibition,PDGFRß,None of them was inhibited
same,kinase inhibition,Met,None of them was inhibited
same,kinase inhibition,Raf,None of them was inhibited
same,FGF2-induced or serum-induced phosphorylation of ERK1/2,ERK1/2 phosphorylation,did not affect
same,activation of p38 MAP kinase phosphorylation by VEGF or serum,[1],unaffected
same,VEGF-induced tyrosine phosphorylation of PLCγ on residue Y783,PLCγ phosphorylation,unaffected
same,phosphorylation of Raf on residue S338,Raf phosphorylation,inhibited
